The source of these data is ChEMBL document CHEMBL5149977, “FLT3 Inhibitors in Acute Myeloid Leukemia: Challenges and Recent Developments in Overcoming Resistance” (J Med Chem, 2021).

A value given as a limit tells only on which side of the number the result lay.

The test system of experiment [1] is BaF3. The experiment can be described thus: cells. The note with it: Mus musculus.
Experiment [2] concerns MV4-11. The experiment can be described thus: cells. Particulars: Homo sapiens.
The test system of experiment [3] is BaF3. The experiment can be described thus: cells. Particulars: Mus musculus. This is another data set of the same source.
Experiment [4] has as its target Receptor-type tyrosine-protein kinase FLT3 (Homo sapiens, UniProt P36888, ITD). The experiment can be described thus: Inhibition of FLT3-ITD (unknown origin).
Experiment [5] deals with MOLM-14. Put plainly: cells. The note with it: Homo sapiens.
Description: Antiproliferative activity against human MOLM-14 cells
In experiment [6] the test system is BaF3. The experiment can be described thus: cells. The note with it: Mus musculus. This is another data set of the same source.
For experiment [7], the system named is BaF3. Put plainly: cells. The note with it: Mus musculus. The source holds these as a separate data set.
Experiment [8] deals with BaF3. The experiment can be described thus: cells. The note with it: Mus musculus. This is another data set of the same source.
Description: Antiproliferative activity against mouse BaF3 cells expressing FLT3-D835Y
Experiment [9] concerns BaF3. Put plainly: cells. Particulars: Mus musculus. The source holds these as a separate data set.
Experiment [10] deals with Tyrosine-protein kinase Fgr (Homo sapiens, UniProt P09769). The experiment can be described thus: Inhibition of FGR (unknown origin).
Chain of Tyrosine-protein kinase Fgr (P09769 whole entry): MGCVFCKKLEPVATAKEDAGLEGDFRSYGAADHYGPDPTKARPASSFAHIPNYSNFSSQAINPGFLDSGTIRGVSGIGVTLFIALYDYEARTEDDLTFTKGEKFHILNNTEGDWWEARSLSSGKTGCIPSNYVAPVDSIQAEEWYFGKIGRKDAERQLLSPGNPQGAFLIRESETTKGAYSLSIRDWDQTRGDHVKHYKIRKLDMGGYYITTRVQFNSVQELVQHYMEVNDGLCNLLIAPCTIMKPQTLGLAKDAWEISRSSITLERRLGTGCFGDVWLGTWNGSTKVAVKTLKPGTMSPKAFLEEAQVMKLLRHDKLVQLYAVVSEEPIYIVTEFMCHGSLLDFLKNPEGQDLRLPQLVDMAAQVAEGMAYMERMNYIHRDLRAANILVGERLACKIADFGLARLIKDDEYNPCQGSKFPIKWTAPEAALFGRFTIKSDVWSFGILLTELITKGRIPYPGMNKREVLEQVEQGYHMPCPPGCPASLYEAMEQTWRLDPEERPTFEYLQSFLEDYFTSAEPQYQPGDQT
Experiment [11] deals with Platelet-derived growth factor receptor alpha (Homo sapiens, UniProt P16234). Put plainly: Inhibition of PDGFR alpha (unknown origin).
Chain of Platelet-derived growth factor receptor alpha (P16234 whole entry): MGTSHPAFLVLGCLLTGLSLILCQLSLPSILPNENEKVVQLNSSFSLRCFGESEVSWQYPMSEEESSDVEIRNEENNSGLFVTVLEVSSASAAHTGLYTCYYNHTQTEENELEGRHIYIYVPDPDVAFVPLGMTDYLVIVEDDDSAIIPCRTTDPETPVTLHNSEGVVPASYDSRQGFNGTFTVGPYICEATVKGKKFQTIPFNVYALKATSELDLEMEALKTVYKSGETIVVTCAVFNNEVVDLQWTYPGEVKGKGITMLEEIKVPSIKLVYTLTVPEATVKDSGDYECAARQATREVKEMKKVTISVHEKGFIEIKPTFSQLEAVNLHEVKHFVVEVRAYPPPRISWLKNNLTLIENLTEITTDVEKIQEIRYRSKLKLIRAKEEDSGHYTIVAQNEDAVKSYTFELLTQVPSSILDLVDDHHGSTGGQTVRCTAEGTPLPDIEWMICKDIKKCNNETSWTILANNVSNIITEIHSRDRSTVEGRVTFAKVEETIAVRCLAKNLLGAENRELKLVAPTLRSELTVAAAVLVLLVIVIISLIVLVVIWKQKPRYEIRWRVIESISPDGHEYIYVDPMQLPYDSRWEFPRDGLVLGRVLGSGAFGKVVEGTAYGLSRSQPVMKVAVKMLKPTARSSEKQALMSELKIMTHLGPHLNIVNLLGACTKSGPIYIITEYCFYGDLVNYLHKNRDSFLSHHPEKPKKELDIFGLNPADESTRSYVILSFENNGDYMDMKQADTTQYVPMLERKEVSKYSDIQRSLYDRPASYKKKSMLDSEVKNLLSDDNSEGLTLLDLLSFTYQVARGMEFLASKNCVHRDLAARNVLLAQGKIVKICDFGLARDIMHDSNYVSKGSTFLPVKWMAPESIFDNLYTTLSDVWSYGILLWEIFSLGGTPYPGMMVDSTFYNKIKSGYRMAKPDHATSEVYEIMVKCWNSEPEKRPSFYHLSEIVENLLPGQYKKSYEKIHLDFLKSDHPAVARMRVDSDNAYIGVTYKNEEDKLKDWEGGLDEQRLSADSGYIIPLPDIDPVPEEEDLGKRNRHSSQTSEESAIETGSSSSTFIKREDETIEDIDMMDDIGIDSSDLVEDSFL
In experiment [12] the target is NT-3 growth factor receptor (Homo sapiens, UniProt Q16288). Put plainly: Inhibition of TrkC (unknown origin).
Chain of NT-3 growth factor receptor (Q16288 whole entry): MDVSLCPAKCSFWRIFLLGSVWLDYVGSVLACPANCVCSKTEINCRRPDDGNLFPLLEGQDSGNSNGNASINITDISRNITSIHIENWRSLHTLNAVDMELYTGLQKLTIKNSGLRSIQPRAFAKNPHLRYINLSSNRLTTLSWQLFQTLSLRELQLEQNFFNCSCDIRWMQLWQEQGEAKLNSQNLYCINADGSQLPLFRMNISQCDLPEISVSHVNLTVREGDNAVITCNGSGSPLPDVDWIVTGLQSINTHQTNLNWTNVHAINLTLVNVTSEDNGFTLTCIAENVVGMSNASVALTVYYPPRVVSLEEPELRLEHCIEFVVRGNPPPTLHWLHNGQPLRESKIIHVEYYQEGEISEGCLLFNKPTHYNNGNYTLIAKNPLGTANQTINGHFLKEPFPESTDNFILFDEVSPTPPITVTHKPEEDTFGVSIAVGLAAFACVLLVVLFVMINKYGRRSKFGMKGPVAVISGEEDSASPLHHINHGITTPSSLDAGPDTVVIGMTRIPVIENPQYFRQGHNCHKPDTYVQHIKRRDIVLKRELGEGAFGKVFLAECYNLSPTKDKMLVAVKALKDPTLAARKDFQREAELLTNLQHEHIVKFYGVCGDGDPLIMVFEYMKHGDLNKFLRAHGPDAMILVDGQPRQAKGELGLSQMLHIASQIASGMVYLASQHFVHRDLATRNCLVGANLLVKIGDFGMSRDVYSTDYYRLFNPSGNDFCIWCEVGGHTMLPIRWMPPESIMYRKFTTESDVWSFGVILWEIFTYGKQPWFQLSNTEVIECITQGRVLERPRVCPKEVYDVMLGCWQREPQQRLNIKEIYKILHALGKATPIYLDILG
Experiment [13] addresses Tyrosine-protein kinase ABL1 (Homo sapiens, UniProt P00519). Put plainly: Inhibition of ABL1 (unknown origin).
In experiment [14] the target is Cyclin-dependent kinase 2 (Homo sapiens, UniProt P24941). The experiment can be described thus: Inhibition of CDK2 (unknown origin).
The target of experiment [15] is Cyclin-dependent kinase 6 (Homo sapiens, UniProt Q00534). Put plainly: Inhibition of CDK6 (unknown origin).
Chain of Cyclin-dependent kinase 6 (Q00534 whole entry): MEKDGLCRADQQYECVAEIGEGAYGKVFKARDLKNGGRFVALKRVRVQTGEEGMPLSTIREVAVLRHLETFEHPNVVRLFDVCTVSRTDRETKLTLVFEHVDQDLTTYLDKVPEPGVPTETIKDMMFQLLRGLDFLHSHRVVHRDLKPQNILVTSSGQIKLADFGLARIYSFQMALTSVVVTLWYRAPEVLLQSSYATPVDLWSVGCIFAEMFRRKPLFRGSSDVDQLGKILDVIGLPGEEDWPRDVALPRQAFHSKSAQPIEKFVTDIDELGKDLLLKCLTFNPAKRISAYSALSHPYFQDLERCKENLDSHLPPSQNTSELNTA
The target of experiment [16] is T1, Receptor-type tyrosine-protein kinase FLT3 (Homo sapiens, UniProt P36888).
T1 sequence (P36888 whole entry): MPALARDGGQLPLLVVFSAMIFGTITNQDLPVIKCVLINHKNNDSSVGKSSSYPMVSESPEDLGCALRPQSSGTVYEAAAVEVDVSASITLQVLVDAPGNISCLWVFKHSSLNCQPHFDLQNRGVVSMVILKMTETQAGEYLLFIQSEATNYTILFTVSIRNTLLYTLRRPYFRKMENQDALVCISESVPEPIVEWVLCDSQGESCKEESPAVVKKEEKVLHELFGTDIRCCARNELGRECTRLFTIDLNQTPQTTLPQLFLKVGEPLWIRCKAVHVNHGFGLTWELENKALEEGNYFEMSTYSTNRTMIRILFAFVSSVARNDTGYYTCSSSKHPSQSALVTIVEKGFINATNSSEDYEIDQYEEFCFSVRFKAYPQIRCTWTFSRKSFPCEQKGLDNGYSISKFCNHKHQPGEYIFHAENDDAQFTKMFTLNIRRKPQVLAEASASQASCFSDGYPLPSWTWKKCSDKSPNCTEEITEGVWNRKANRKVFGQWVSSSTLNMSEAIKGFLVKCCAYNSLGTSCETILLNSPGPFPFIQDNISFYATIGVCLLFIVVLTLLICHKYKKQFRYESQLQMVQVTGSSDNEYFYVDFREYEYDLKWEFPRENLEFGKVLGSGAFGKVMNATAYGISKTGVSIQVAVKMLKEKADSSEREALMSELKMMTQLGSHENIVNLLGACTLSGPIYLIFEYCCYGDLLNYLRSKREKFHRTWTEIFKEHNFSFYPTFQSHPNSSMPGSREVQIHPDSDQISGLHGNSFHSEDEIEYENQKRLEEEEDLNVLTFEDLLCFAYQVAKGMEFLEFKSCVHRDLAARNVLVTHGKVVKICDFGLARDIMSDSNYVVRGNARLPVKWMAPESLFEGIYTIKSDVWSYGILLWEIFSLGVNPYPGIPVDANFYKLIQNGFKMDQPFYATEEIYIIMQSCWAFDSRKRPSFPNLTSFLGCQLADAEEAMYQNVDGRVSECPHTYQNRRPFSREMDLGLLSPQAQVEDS
Description: Inhibition of FLT3 (unknown origin)

Experiment [17] deals with MV4-11. Put plainly: Cytotoxicity against human MV4-11 cells […] incubated for 72 hrs. The experiment is classed as functional, cell-based. The note with it: MV4-11, 72 h.
Experiment [18] has as its target Receptor-type tyrosine-protein kinase FLT3 (Homo sapiens, UniProt P36888, D835H). Put plainly: Binding affinity to FLT3-D835H mutant (unknown origin) assessed as dissociation constant.
For experiment [19], the target named is Receptor-type tyrosine-protein kinase FLT3 (Homo sapiens, UniProt P36888, D835Y). Put plainly: Binding affinity to FLT3-D835Y mutant (unknown origin) assessed as dissociation constant.
Experiment [20] relates to MV4-11. Put plainly: Cytotoxicity against human MV4-11 cells incubated for 72 hrs. In kind it is functional, cell-based. The note with it: MV4-11, 72 h.
Experiment [21] addresses Cyclin-dependent kinase 4 (Homo sapiens, UniProt P11802). Put plainly: Inhibition of CDK4 (unknown origin).
A short description of experiment [22]: Antiproliferative activity against mouse 32D cells expressing FLT3-ITD-Y842H assessed as cell growth inhibition. In kind it is functional.
Experiment [23] in a line: Antiproliferative activity against mouse 32D cells expressing FLT3-ITD assessed as cell growth inhibition. The experiment is classed as functional, cell-based.
Experiment [24] is described as follows: Antiproliferative activity against mouse 32D cells expressing FLT3-ITD-F691L assessed as cell growth inhibition. In kind it is functional.
Experiment [25] can be described thus: Antiproliferative activity against mouse 32D cells expressing FLT3-D835Y assessed as cell growth inhibition. In kind it is functional, cell-based.
Experiment [26] in a line: Antiproliferative activity against mouse 32D cells expressing FLT3-ITD-Y842C assessed as cell growth inhibition. The experiment is classed as functional.
A short description of experiment [27]: Antiproliferative activity against mouse 32D cells expressing FLT3-ITD-D835Y assessed as cell growth inhibition. In kind it is functional.
A short description of experiment [28]: Antiproliferative activity against mouse 32D cells expressing FLT3-D835H assessed as cell growth inhibition. In kind it is functional.
For experiment [29], the system named is BaF3. Put plainly: cells. Particulars: Mus musculus. This is another data set of the same source.
Experiment [30] concerns the target Leukocyte tyrosine kinase receptor (Homo sapiens) (UniProt P29376). Put plainly: Inhibition of LTK (unknown origin).
Experiment [31] deals with BaF3. Put plainly: cells. Particulars: Mus musculus. This is another data set of the same source.
In experiment [32] the test system is MOLM-13. The experiment can be described thus: Antiproliferative activity against human MOLM-13 cells incubated for 72 hrs by MTS assay. The experiment is classed as functional.
The subject of experiment [33] is MOLM-13. Put plainly: Antiproliferative activity against drug resistant human MOLM-13 cells incubated for 72 hrs by MTS assay. The experiment is classed as functional. A general note: Formazan colour is commonly taken as a measure of viable cells.
The test system of experiment [34] is BaF3. The experiment can be described thus: Cytotoxicity against mouse BaF3 cells expressing FLT3-ITD-D835H measured after 72 hrs by cell titre glo assay. In kind it is functional, cell-based. The note with it: BaF3, 72 h.
For experiment [35], the system named is BaF3. The experiment can be described thus: Cytotoxicity against mouse BaF3 cells expressing FLT3-ITD-F691L measured after 72 hrs by cell titre glo assay. In kind it is functional, cell-based. Particulars: BaF3, 72 h.
Experiment [36] has as its system MOLM-13. The experiment can be described thus: Cytotoxicity against human MOLM-13 cells measured after 72 hrs by cell titre glo assay. The note with it: MOLM-13, 72 h. In kind it is functional, cell-based.
The test system of experiment [37] is BaF3. The experiment can be described thus: Cytotoxicity against mouse BaF3 cells expressing FLT3-ITD-D835Y measured after 72 hrs by cell titre glo assay. The experiment is classed as functional, cell-based. The note with it: BaF3, 72 h.
The test system of experiment [38] is MOLM-13. Put plainly: Cytotoxicity against human MOLM-13 cells expressing FLT3-D835Y measured after 72 hrs by cell titre glo assay. In kind it is functional, cell-based. Particulars: MOLM-13, 72 h.
Experiment [39] concerns BaF3. The experiment can be described thus: Cytotoxicity against mouse BaF3 cells expressing FLT3-ITD measured after 72 hrs by cell titre glo assay. In kind it is functional, cell-based. The note with it: BaF3, 72 h.
Experiment [40] has as its system MOLM-14. The experiment can be described thus: cells. Particulars: Homo sapiens. The source holds these as a separate data set.
Description: Antiproliferative activity against human MOLM-14 cells expressing F691L

Chain of Cyclin-dependent kinase 4 (P11802 whole entry): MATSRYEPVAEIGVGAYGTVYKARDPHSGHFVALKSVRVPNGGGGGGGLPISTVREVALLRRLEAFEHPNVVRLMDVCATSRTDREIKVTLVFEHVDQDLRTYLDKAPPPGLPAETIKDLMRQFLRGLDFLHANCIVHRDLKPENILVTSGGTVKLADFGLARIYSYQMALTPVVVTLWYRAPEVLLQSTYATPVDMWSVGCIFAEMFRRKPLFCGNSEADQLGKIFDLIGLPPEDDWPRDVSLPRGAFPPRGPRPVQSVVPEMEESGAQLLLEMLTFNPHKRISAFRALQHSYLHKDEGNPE
Chain of Tyrosine-protein kinase ABL1 (P00519 whole entry): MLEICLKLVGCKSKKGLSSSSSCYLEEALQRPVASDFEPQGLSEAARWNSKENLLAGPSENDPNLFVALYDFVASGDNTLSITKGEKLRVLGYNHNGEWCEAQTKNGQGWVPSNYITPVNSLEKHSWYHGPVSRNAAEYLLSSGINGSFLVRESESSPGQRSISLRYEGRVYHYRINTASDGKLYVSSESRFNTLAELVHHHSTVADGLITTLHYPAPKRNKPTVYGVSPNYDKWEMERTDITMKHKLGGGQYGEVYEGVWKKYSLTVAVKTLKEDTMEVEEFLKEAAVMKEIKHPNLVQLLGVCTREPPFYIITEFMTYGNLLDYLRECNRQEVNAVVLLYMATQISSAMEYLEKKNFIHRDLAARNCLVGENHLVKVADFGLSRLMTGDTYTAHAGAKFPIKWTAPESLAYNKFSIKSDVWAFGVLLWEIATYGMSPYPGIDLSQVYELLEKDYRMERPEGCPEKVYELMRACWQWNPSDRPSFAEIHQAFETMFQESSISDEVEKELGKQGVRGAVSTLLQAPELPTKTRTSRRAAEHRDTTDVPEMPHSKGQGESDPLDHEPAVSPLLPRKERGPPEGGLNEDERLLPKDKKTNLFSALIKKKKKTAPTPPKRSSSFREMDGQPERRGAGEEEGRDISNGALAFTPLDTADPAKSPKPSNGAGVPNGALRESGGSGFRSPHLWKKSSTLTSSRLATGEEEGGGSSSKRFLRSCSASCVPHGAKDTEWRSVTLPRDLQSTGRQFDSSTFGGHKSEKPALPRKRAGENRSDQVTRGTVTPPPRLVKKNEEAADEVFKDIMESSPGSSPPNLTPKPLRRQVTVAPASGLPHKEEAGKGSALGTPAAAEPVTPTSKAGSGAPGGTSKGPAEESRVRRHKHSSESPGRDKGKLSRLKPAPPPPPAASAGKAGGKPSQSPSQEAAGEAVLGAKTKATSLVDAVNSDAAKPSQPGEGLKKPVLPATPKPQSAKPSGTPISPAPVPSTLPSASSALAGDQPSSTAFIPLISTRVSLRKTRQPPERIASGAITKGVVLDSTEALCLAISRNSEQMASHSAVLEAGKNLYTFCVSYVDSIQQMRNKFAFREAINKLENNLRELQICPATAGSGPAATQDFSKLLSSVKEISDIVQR

The term IC50 denotes the midpoint of a concentration-inhibition curve. With `COc1cc2c(Oc3ccc(NC(=O)Nc4cccc(C)c4)cc3F)ccnc2cc1OCCCN1CCOCC1`, the IC50 turned out to be 0.17 nM in the experiment with BaF3 [1]; 0.14 nM in the experiment with MV4-11 [2]; 22 nM in the experiment with BaF3 [3]; 7 nM in experiment [4]; 0.13 nM with MOLM-14 [5]; 2.5 nM in the experiment on BaF3 [6]. Further, the IC50 in the experiment on BaF3 [7] is 0.22 nM; in the experiment with BaF3 [8] it was 0.19 nM; with BaF3 [9], 1.1 nM.

With `COc1cc2ncc(-c3cccc(NC4CCNC4)n3)n2cc1-c1cnn(C)c1` (centres undefined), the IC50 in experiment [10] is below 0.5 nM; in experiment [11], 1.1 nM; in experiment [12] it was 0.7 nM; in [13] it was 0.6 nM.

As usually defined, the Kd is the concentration at which binding is half-saturated. With `C[C@H]1CC[C@@H](n2c3cnccc3c3cnc(Nc4ccc5c(n4)CCN(C(=O)CO)C5)nc32)CC1`, the IC50 was determined as 375 nM in [14]; 8 nM in [15]; 1 nM in experiment [16]; 9 nM in the experiment on MV4-11 [17]; 18 nM with MV4-11 [20]; 3 nM in [21]. Moreover, the Kd in [4] came to 4 nM; in experiment [18], 1 nM; in [19], 1 nM.

One may read the GI50 as the concentration at which growth is held to half of that of the control. For `CCCNc1nc(Nc2ccc(C#N)cc2)ncc1C#CCCCNC(=O)[C@H](C)N(C)C(=O)/C=C/CN(C)C` [FF-10101], the GI50 was 5.3 nM in [22]; 10 nM in experiment [24]; 3.5 nM in experiment [26]; 0.81 nM in [27]; 1.1 nM in experiment [28]. Besides, the results for the IC50 in experiment [23] and in [25] were 1.9 nM and 0.32 nM, respectively.

In the case of `CCc1nc(C(N)=O)c(Nc2ccc(N3CCC(N4CCN(C)CC4)CC3)c(OC)c2)nc1NC1CCOCC1` [GILTERITINIB], the figures for the IC50 (with BaF3 [29]; in experiment [30]; in the experiment with BaF3 [31]) were 1.8 nM, 0.35 nM and 2.1 nM, respectively.

Consider `Cc1nn(C)cc1-c1nc2c(N3CCN(Cc4ccc(Cl)cc4)CC3)c(Cl)cnc2[nH]1` [MOBINITINIB], for which the results for the GI50 in the experiment on MOLM-13 [32] and with MOLM-13 [33] were 100 nM and 180 nM, respectively.

As for `C1=N/C2=N/c3ccc(OCCN4CCCC4)c(c3)COC/C=C/COCc3cccc(c3)C(=C1)N2` [PACRITINIB], the IC50 in the experiment on BaF3 [34] worked out at 306 nM; with BaF3 [35], 291 nM; with MOLM-13 [36] it was 73 nM; in the experiment with BaF3 [37] it was 434 nM; in the experiment on MOLM-13 [38] it was 173 nM; in the experiment with BaF3 [39], 133 nM.

As to `FC(F)(F)c1ccc(CNc2ccc(Cc3c[nH]c4ncc(Cl)cc34)cn2)cn1` [PEXIDARTINIB], the IC50 came to 0.17 nM in the experiment on BaF3 [1]; 200 nM with MV4-11 [2]; 4700 nM in the experiment with BaF3 [3]; 350 nM in the experiment on MOLM-14 [5]; 2.5 nM in the experiment on BaF3 [6]; 130 nM in the experiment on BaF3 [7]. Also, the IC50 was 0.19 nM with BaF3 [8], 97 nM with BaF3 [9] and 670 nM with MOLM-14 [40].
